Experimental data reported in PubChem BioAssay AID1963841 (Molecular Pharmacology Branch, DTP, NCI, 2024).
Values joined by “and” are separate entries in the source; they are usually repeats but may differ in a detail not shown here. Equal values may be shown once.

System: 439559-082-T-J2-PDC spheroid viability
Test: Anticancer human tumor 439559-082-T-J2-PDC patient-derived colon adenocarcinoma cell line growth inhibition [POLQ]
Conditions: spheroids with HUVEC and MSC; for viability, T/C: stronger effect = lower value
In short: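 Three-cell-type spheroids modelling solid tumor plus stroma served as the readout system; POL inhibitors were tested individually and in combination, concentration ranges set by clinical Cmax where known.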

[1] = curve of first compound, second compound 0.0316 µM
[2] = curve of first compound, second compound 0.1 µM
[3] = curve of first compound, second compound 0.316 µM
[4] = curve of first compound, second compound 1 µM
[5] = curve of first compound, second compound 3.16 µM
[6] = curve of first compound, second compound 10 µM
[7] = second compound 0.0316 µM, first compound 0.0316 µM
[8] = second compound 0.0316 µM, first compound 0.1 µM
[9] = second compound 0.0316 µM, first compound 0.316 µM
[10] = second compound 0.0316 µM, first compound 1 µM
[11] = second compound 0.0316 µM, first compound 3.16 µM
[12] = second compound 0.0316 µM, first compound 10 µM
[13] = second compound 0.1 µM, first compound 0.0316 µM
[14] = second compound 0.1 µM, first compound 0.1 µM
[15] = second compound 0.1 µM, first compound 0.316 µM
[16] = second compound 0.1 µM, first compound 1 µM
[17] = second compound 0.1 µM, first compound 3.16 µM
[18] = second compound 0.1 µM, first compound 10 µM
[19] = second compound 0.316 µM, first compound 0.0316 µM
[20] = second compound 0.316 µM, first compound 0.1 µM
[21] = second compound 0.316 µM, first compound 0.316 µM
[22] = second compound 0.316 µM, first compound 1 µM
[23] = second compound 0.316 µM, first compound 3.16 µM
[24] = second compound 0.316 µM, first compound 10 µM
[25] = second compound 1 µM, first compound 0.0316 µM
[26] = second compound 1 µM, first compound 0.1 µM
[27] = second compound 1 µM, first compound 0.316 µM
[28] = second compound 1 µM, first compound 1 µM
[29] = second compound 1 µM, first compound 3.16 µM
[30] = second compound 1 µM, first compound 10 µM
[31] = second compound 3.16 µM, first compound 0.0316 µM
[32] = second compound 3.16 µM, first compound 0.1 µM
[33] = second compound 3.16 µM, first compound 0.316 µM
[34] = second compound 3.16 µM, first compound 1 µM
[35] = second compound 3.16 µM, first compound 3.16 µM
[36] = second compound 3.16 µM, first compound 10 µM
[37] = second compound 10 µM, first compound 0.0316 µM
[38] = second compound 10 µM, first compound 0.1 µM
[39] = second compound 10 µM, first compound 0.316 µM
[40] = second compound 10 µM, first compound 1 µM
[41] = second compound 10 µM, first compound 3.16 µM
[42] = second compound 10 µM, first compound 10 µM
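Also: spheroids exposed to compounds for seven days before readout.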
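For viability, T/C in this document: 100% = DMSO vehicle control viability.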

Which results are given for CC(C)n1c(=O)n(C)c2cnc3cc(F)c(-c4ccc(OCCCN5CCCCC5)nc4)cc3c21 + Cc1cccc(N(C)C(=O)C2C(O)CCN2c2nc(C)cc(C(F)(F)F)c2C#N)c1?
IC50 [1]: > 10 µM; IC50 [2]: > 10 µM; IC50 [3]: > 10 µM; IC50 [4]: > 10 µM; IC50 [5]: > 10 µM; IC50 [6]: > 10 µM; viability, T/C [7]: 103%; viability, T/C [8]: 106%; viability, T/C [9]: 109%; viability, T/C [10]: 116%; viability, T/C [11]: 99.8%; viability, T/C [12]: 93.9%; viability, T/C [13]: 115%; viability, T/C [14]: 105%; viability, T/C [15]: 107%; viability, T/C [16]: 111%; viability, T/C [17]: 109%; viability, T/C [18]: 94%; viability, T/C [19]: 103%; viability, T/C [20]: 104%; viability, T/C [21]: 108%; viability, T/C [22]: 107%; viability, T/C [23]: 110%; viability, T/C [24]: 102%; viability, T/C [25]: 108%; viability, T/C [26]: 103%; viability, T/C [27]: 108%; viability, T/C [28]: 115%; viability, T/C [29]: 108%; viability, T/C [30]: 87.4%; viability, T/C [31]: 93.5%; viability, T/C [32]: 111%; viability, T/C [33]: 96.9%; viability, T/C [34]: 112%; viability, T/C [35]: 103%; viability, T/C [36]: 81.5%; viability, T/C [37]: 96.5%; viability, T/C [38]: 93.6%; viability, T/C [39]: 108%; viability, T/C [40]: 101%; viability, T/C [41]: 97.6%; viability, T/C [42]: 87.4%

What does the source list for COc1cccc(OCCCN)c1-c1cc(Nc2cnc(C#N)cn2)n[nH]1?
viability, T/C (compound 0.00316 µM): 99.5% and 95.1% and 102%; viability, T/C (compound 0.01 µM): 88.5% and 89.2% and 81.1%; viability, T/C (compound 0.0316 µM): 73.2% and 77.3% and 77.8%; viability, T/C (compound 0.1 µM): 55.3% and 76.4% and 78.8%; viability, T/C (compound 0.316 µM): 30.3% and 45.7% and 50.2%; viability, T/C (compound 1 µM): 18.1% and 20.9% and 23%; IC50 (curve of compound): 0.118 µM and 0.296 µM and 0.345 µM

Which IC50 [1] does the source give for CCc1cc2c(N3CCc4c(cc(Cn5ccnc5)cc4-c4cn(C)nc4C(F)(F)F)C3=O)ccnc2c(OC)n1 + COC1C(OC(N)=O)C(O)C(Oc2ccc3c(O)c(NC(=O)c4ccc(O)c(CC=C(C)C)c4)c(=O)oc3c2C)OC1(C)C here?
Its IC50 is greater than 10 µM.

And the IC50 [2]?
The IC50 was greater than 10 µM.

And the IC50 [3]?
The IC50 was greater than 10 µM.

And the IC50 [4]?
Its IC50 is greater than 10 µM.

And the IC50 [5]?
The IC50 was greater than 10 µM.

And the IC50 [6]?
The IC50 was greater than 10 µM.

What about the viability, T/C [7] of the same compound?
Its viability, T/C is 95.2%.

What about the viability, T/C [8] of the same compound?
The viability, T/C was 104%.

And the viability, T/C [9]?
Its viability, T/C is 97.5%.

What about the viability, T/C [10] of the same compound?
Its viability, T/C is 95.2%.

And the viability, T/C [11]?
Its viability, T/C is 91.6%.

And the viability, T/C [12]?
Its viability, T/C is 95.3%.

And the viability, T/C [13]?
Its viability, T/C is 100%.

What about the viability, T/C [14] of the same compound?
Its viability, T/C is 103%.

What about the viability, T/C [15] of the same compound?
The viability, T/C was 96.1%.

And the viability, T/C [16]?
Its viability, T/C is 90.7%.

What about the viability, T/C [17] of the same compound?
The viability, T/C was 99.2%.

What about the viability, T/C [18] of the same compound?
The viability, T/C was 95.2%.

What about the viability, T/C [19] of the same compound?
Its viability, T/C is 107%.

And the viability, T/C [20]?
The viability, T/C was 107%.

What about the viability, T/C [21] of the same compound?
The viability, T/C was 101%.

What about the viability, T/C [22] of the same compound?
Its viability, T/C is 109%.

And the viability, T/C [23]?
Its viability, T/C is 91.5%.

And the viability, T/C [24]?
The viability, T/C was 90.3%.

What about the viability, T/C [25] of the same compound?
Its viability, T/C is 110%.

What about the viability, T/C [26] of the same compound?
Its viability, T/C is 106%.

What about the viability, T/C [27] of the same compound?
The viability, T/C was 99.4%.

And the viability, T/C [28]?
The viability, T/C was 92.9%.

What about the viability, T/C [29] of the same compound?
The viability, T/C was 93.1%.

What about the viability, T/C [30] of the same compound?
The viability, T/C was 87.6%.

What about the viability, T/C [31] of the same compound?
The viability, T/C was 99.6%.

What about the viability, T/C [32] of the same compound?
Its viability, T/C is 109%.

And the viability, T/C [33]?
The viability, T/C was 99.4%.

What about the viability, T/C [34] of the same compound?
Its viability, T/C is 92%.

What about the viability, T/C [35] of the same compound?
The viability, T/C was 93%.

And the viability, T/C [36]?
Its viability, T/C is 89.6%.

What about the viability, T/C [37] of the same compound?
Its viability, T/C is 106%.

And the viability, T/C [38]?
The viability, T/C was 93.7%.

And the viability, T/C [39]?
The viability, T/C was 99.1%.

And the viability, T/C [40]?
The viability, T/C was 101%.

What about the viability, T/C [41] of the same compound?
The viability, T/C was 102%.

And the viability, T/C [42]?
Its viability, T/C is 94.5%.

With COC1C(OC(N)=O)C(O)C(Oc2ccc3c(O)c(NC(=O)c4ccc(O)c(CC=C(C)C)c4)c(=O)oc3c2C)OC1(C)C (stereo not drawn) as the compound, how does the viability, T/C (compound 0.0316 µM) read?
The viability, T/C was 102% [middle of 13 runs].

And the viability, T/C (compound 0.1 µM)?
The viability, T/C was 96.7% [middle of 13 runs].

And the viability, T/C (compound 0.316 µM)?
Its viability, T/C is 101% [middle of 13 runs].

And the viability, T/C (compound 1 µM)?
The viability, T/C was 101% [middle of 13 runs].

What about the viability, T/C (compound 3.16 µM) of the same compound?
The viability, T/C was 100% [middle of 12 runs].

What about the viability, T/C (compound 10 µM) of the same compound?
Its viability, T/C is 105% [middle of 13 runs].

And the IC50 (compound alone, run of 11/27/2023)?
The IC50 was greater than 10 µM.
